The results in this text go back to patent US8703961B2, “Thiazole derivatives for the treatment of diseases such as cancer” (Merck Patent GmbH, priority 2009, dated 2014).

What all share (experiment): filter binding kinase assay
Holding throughout (type): biochemical
Details in all cases: derived from % inhibition at 1 μM

The target in one test is T1, CSNK1D (Homo sapiens, UniProt P48730).
T1 construct: purchased
A digest of the protocol: (§1)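 Kinase activity is measured at room temperature by filter binding, with incorporated radiolabel counted after acid termination. A 5-minute preincubation of compound, enzyme and substrate precedes addition of ATP from a kinase-dependent stock (5, 20 or 50 […]).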

The target of the next test is T2, DYRK3 (Homo sapiens, UniProt O43781).
T2 construct: purchased
T2 sequence (O43781 1-588): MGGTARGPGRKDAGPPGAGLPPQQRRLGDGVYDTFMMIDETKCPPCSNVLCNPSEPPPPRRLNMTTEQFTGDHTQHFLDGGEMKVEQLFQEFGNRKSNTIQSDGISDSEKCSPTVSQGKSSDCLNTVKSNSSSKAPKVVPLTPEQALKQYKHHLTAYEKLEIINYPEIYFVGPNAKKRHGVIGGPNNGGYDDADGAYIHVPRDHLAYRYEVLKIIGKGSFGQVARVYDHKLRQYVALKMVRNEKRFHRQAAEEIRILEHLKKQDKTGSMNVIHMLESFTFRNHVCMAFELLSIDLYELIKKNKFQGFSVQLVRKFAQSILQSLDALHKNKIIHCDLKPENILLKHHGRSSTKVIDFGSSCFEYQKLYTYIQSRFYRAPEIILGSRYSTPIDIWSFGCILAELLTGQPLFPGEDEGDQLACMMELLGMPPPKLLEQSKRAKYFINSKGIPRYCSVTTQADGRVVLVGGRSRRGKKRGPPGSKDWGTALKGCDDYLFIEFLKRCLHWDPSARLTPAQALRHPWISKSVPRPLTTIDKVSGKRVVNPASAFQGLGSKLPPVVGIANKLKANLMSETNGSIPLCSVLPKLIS
The method in brief:
as §1

The target of a further test is T3, EPHA2 (Homo sapiens, UniProt P29317).
T3 construct: purchased
T3 sequence (P29317 24-976, species assumed): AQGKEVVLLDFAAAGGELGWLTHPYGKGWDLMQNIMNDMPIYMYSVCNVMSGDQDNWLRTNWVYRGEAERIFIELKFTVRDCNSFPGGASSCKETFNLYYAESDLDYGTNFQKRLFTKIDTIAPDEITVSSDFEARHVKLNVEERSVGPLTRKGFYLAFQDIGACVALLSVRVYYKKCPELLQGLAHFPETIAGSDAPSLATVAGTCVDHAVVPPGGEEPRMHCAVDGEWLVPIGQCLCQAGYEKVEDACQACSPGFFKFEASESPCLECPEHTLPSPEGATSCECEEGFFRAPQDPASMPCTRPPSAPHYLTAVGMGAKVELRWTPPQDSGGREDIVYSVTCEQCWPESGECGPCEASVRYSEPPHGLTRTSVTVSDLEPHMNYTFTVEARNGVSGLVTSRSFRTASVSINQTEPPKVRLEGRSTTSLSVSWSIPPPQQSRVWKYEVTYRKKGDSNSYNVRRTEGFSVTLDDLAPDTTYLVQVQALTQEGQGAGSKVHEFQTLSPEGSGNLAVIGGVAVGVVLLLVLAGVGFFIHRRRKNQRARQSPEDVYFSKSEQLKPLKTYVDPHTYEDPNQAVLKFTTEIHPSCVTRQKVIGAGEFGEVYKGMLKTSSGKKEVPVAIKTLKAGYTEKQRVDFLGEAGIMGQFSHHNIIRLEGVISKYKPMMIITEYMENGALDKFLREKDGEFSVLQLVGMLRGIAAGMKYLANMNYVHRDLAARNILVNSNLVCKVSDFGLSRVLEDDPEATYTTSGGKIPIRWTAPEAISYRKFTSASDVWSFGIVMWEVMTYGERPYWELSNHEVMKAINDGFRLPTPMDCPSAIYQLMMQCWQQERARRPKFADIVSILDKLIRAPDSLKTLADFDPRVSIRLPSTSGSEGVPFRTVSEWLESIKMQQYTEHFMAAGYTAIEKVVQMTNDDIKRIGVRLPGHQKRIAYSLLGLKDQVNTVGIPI
The method in brief:
as §1

For a further test, the target named is T4, MAPK11 (Homo sapiens, UniProt Q15759).
T4 construct: purchased
T4 sequence (Q15759 whole entry, species assumed): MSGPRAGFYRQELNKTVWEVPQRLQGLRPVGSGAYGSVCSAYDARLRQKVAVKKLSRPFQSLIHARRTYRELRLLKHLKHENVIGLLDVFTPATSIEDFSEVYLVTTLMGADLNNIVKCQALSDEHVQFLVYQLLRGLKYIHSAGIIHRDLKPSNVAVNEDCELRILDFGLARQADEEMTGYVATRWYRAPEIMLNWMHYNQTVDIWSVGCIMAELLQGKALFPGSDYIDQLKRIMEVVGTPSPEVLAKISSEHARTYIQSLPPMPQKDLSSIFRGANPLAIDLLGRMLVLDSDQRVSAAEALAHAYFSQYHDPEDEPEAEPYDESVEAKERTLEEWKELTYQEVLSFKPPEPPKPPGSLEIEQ
A digest of the protocol: as §1

The next test deals with T5, MINK1 (Homo sapiens, UniProt Q8N4C8).
T5 construct: purchased
T5 sequence (Q8N4C8 whole entry, species assumed): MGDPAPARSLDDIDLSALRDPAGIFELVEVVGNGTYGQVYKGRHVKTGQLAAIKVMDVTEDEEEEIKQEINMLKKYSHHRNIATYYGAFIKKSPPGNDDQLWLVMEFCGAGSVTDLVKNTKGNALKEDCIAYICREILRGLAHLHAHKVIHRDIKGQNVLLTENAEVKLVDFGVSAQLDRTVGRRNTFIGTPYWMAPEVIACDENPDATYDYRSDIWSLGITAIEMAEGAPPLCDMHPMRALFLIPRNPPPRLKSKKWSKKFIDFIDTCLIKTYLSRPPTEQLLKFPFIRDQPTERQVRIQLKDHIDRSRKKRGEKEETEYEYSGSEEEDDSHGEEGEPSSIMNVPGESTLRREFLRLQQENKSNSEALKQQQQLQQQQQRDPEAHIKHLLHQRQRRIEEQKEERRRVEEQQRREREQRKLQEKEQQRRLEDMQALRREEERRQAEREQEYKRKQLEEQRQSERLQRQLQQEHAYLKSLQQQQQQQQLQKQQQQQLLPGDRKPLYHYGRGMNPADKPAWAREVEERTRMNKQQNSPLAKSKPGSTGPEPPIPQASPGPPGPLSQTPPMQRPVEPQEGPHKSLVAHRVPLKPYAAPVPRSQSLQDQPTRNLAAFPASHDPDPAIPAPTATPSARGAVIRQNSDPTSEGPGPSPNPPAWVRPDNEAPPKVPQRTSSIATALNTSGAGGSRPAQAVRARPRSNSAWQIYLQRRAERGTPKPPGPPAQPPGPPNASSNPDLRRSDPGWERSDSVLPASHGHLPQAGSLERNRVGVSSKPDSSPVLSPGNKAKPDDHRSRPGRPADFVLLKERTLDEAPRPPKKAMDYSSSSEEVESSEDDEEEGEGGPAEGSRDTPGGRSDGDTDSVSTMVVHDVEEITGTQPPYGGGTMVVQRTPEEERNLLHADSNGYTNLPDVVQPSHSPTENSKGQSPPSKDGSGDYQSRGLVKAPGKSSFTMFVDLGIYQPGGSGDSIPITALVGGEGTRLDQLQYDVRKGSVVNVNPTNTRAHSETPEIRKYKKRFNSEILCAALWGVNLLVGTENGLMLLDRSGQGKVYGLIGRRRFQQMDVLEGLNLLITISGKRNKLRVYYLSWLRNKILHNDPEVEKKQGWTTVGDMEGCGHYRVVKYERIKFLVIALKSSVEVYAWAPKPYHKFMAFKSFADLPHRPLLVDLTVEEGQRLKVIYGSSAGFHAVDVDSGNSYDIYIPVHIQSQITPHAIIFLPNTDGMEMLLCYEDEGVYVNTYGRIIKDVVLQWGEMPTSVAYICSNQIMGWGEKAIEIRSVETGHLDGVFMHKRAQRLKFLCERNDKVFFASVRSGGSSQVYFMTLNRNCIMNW
The method in brief: as §1

The next test addresses T6, PLK1 (Homo sapiens, UniProt P53350).
T6 construct: purchased
A digest of the protocol: as §1

The target in the next test is T7, PRKD2 (Homo sapiens, UniProt Q9BZL6).
T7 construct: purchased
T7 sequence (Q9BZL6 1-878): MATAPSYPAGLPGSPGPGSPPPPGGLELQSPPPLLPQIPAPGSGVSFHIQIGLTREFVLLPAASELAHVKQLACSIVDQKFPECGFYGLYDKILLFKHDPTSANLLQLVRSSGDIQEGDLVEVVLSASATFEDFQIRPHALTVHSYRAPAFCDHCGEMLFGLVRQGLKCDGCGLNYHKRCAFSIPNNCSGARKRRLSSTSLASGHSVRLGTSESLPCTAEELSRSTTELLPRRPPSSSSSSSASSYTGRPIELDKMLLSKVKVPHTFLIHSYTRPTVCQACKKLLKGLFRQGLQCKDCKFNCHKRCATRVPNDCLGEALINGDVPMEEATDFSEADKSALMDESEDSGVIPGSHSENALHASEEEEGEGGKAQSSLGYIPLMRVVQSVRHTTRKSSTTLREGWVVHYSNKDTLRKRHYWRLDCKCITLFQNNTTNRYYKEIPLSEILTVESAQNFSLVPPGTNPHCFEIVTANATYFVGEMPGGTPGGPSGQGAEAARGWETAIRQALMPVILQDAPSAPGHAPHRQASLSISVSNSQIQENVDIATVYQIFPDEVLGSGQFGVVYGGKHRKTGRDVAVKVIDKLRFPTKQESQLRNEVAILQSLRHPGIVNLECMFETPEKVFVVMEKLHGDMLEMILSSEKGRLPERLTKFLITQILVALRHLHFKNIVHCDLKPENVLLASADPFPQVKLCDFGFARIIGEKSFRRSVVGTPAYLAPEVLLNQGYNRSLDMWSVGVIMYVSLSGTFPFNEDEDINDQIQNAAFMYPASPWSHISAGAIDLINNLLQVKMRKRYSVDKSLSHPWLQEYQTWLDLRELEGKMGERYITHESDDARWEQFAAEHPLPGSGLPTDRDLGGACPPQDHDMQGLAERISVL
The method in brief:
as §1

Another test deals with T8, TGFBR1 (Homo sapiens, UniProt P36897).
T8 construct: purchased
T8 sequence (P36897 34-503): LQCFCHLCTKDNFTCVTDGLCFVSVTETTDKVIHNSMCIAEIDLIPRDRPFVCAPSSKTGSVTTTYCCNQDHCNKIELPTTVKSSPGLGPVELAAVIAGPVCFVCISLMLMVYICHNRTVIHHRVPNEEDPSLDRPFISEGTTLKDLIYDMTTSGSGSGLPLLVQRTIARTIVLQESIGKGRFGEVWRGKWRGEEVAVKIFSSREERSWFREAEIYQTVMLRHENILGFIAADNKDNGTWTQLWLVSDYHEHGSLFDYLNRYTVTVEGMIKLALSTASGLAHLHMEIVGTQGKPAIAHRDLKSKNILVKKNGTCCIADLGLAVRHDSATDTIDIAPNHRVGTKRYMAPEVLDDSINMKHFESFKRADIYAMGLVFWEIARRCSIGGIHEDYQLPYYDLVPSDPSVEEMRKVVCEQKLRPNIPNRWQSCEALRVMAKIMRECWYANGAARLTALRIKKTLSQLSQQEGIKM
The method in brief:
as §1

T6 sequence (P53350 whole entry, species assumed): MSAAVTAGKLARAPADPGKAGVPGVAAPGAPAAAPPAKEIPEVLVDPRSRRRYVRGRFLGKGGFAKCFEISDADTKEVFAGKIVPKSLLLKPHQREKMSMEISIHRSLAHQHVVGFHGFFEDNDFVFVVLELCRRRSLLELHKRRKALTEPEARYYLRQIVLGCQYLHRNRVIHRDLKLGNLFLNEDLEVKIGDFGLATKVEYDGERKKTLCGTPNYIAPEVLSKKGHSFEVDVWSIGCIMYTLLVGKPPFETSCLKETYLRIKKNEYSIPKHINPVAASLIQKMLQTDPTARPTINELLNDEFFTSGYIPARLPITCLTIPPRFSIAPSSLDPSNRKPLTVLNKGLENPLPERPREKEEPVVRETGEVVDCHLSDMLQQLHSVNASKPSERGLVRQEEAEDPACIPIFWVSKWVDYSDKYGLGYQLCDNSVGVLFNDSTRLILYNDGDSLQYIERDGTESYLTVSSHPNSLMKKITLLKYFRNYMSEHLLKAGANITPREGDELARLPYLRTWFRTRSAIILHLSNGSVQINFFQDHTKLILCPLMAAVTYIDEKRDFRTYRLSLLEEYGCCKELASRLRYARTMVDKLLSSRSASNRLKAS
T1 sequence (P48730 whole entry, species assumed): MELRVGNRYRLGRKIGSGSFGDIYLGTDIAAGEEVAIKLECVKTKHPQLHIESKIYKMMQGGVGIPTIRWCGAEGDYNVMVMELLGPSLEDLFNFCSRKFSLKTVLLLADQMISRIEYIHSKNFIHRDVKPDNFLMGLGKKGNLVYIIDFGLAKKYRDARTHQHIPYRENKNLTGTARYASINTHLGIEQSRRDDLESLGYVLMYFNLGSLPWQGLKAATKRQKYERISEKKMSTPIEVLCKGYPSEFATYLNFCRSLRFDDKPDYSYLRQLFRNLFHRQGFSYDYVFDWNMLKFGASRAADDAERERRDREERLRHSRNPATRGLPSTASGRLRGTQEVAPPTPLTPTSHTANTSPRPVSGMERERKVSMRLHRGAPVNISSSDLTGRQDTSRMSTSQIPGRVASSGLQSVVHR

For orientation: IC50 means the midpoint of a concentration-inhibition curve. The low end stands for greater potency in that assay, the high end for weaker potency in that assay. In the case of `Nc1ncsc1C#Cc1cnc2[nH]ccc2c1` [Compound A22, 5-(1H-pyrrolo[2,3-b]pyridin-5-ylethynyl)thiazol-4-ylamine], the IC50 at CSNK1D is 10 to 100 µM; at DYRK3 it was 10 to 100 µM; at EPHA2, more than 1 µM; at MAPK11, more than 1 µM; on MINK1, 1 to 10 µM; at PLK1 it was 1 to 10 µM. For the same molecule, the IC50 is more than 1 µM at PRKD2 and 10 to 100 µM at TGFBR1.

Consider `CC(C)(C)OC(=O)Nc1ncsc1C#CCN1C(=O)c2ccccc2C1=O` [Compound A26, tert-butyl{5-[3-(1,3-dioxo-1,3-dihydroisoindol-2-yl)prop-1-ynyl]-thiazol-4-yl}carbamate], for which the IC50 at CSNK1D is more than 1 µM; at DYRK3 it was 1 to 10 µM; on EPHA2, more than 1 µM; at MAPK11 it was more than 1 µM; on MINK1, 10 to 100 µM; on PLK1 it was more than 1 µM. Besides, the IC50 on PRKD2 is more than 1 µM; on TGFBR1, 10 to 100 µM.

Regarding `Nc1ncsc1C#Cc1cccc(O)c1` [Compound A27, 3-(4-aminothiazol-5-ylethynyl)phenol], the IC50 on CSNK1D is 1 to 10 µM; at DYRK3, 10 to 100 µM; at EPHA2, more than 1 µM; at MAPK11, 1 to 10 µM; at MINK1, 1 to 10 µM; on PLK1 it was 10 to 100 µM. Besides, the IC50 on PRKD2 and at TGFBR1 was 1 to 10 µM throughout.

For the molecule `CC(C)(C)OC(=O)Nc1nc(-c2ccncc2)sc1C#CCN1CCOCC1` [Compound A25, tert-butyl[5-(3-morpholin-4-ylprop-1-ynyl)-2-pyridin-4-ylthiazol-4-yl]-carbamate], the IC50 on CSNK1D is more than 1 µM; on DYRK3 it was 10 to 100 µM; on EPHA2 it was more than 1 µM; at MAPK11, more than 1 µM; on MINK1, 10 to 100 µM; at PLK1, more than 1 µM. The figures for the IC50 on PRKD2 and at TGFBR1 were more than 1 µM and 1 to 10 µM, respectively.

With `c1ccc(Cc2c[nH]c3ncsc23)cc1` [Compound A7, 6-benzyl-4H-pyrrolo[2,3-d]thiazole], the half-inhibitory concentration (IC50) was 1 to 10 µM on CSNK1D; 10 to 100 µM on DYRK3; 10 to 100 µM on EPHA2; 1 to 10 µM at MAPK11; 1 to 10 µM on MINK1; more than 1 µM on PLK1. Moreover, the IC50 on PRKD2 fell in the range of 1 to 10 µM; on TGFBR1, 10 to 100 µM.
